Test results taken from PMC9743094, “Synthesis and Evaluation of Polymyxins Bearing Reductively Labile Disulfide-Linked Lipids” (Journal of Medicinal Chemistry, 2022).
≈ marks a conversion by molar mass, not a printed value. Positions of bridges follow the written chain, without caps; N, C: chain ends. Non-standard residues stand in square brackets, D forms with d. Residues, ends and D or L forms follow the SMILES beside them. *: point of attachment. S(3-Cl-benzyl) = Clc1cccc(CS*)c1; X3 = c1ccc(Oc2ccc(CS*)cc2)cc1; X5 = c1ccc(-c2ccc(CS*)cc2)cc1; S(3-Methylbutyl) = CC(C)CCS*; Dab = NCC[C@H](N)C(=O)O; X1 = CC(C)CCCCS*; X4 = CCCCCCS*

Key:
E. coli (ATCC 25922) = assay type: cell-based; conditions: ATCC 25922
Summary of the method: (§1)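 Broth microdilution per CLSI in cation-adjusted Mueller–Hinton Broth (12.5 μg/mL Mg^2+, 20 μg/mL Ca^2+), inoculum 10^6 CFU/mL final, 37 °C. MIC taken as lowest concentration with no visible growth, consistent across at least duplicate experiments.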

[1] = test system: A. baumannii (ATCC 19606); assay type: cell-based; conditions: ATCC 19606
Summary of the method: as §1

[2] = test system: K. pneumoniae (ATCC 13883); assay type: cell-based; conditions: ATCC 13883
Summary of the method: as §1

[3] = test system: P. aeruginosa (ATCC 27853); assay type: cell-based; conditions: ATCC 27853
Summary of the method: as §1

[4] = test system: differentiated conditionally immortalized PTECs (ciPTECs, OAT-1); assay: ciPTEC toxicity assay (PrestoBlue); assay type: cell-based, human
Experimental: ciPTECs (OAT-1) cells,[52],[53] grown to 90–100% confluence, were washed by Hanks’ balanced salt solution (HBSS; Gibco, Life Technologies, Paisley, U.K.) and detached by accutase (4 mL) for 5 min at 37 °C. The cells were then suspended in fresh medium (DMEM/F-12, supplemented with 10% fetal calf serum, insulin (5 μg/mL), transferrin (5 μg/mL), selenium (5 μg/mL) hydrocortisone (35 ng/mL), Epidermal Growth Factor (10 ng/mL) and tri-iodothyronine (40 pg/mL)). Cell density was adjusted to 2.0 × 10^5 cells/mL, of which 100 μL was added to each well of a 96-well plate. The cells were incubated for 24 h at 33 °C, followed by 6 days at 37 °C, in a humidified atmosphere containing 5% (v/v) CO2. The medium was refreshed every second or third day.
Compounds were dissolved and serially diluted in serum-free medium. Differentiated cells were washed once with HBSS and serially diluted compounds (80 μL/well) were transferred to the ciPTEC-containing plate. Compounds were incubated for 24 h at 37 °C; the cells were washed by HBSS, followed by incubation with 10% PrestoBlue cell viability reagent (Thermo Scientific, Vienna, Austria) in HBSS at 37 °C in the dark. Fluorescence was recorded (excitation: 530 nm, emission: 590 nm). Raw data are corrected for PrestoBlue background fluorescence and reported relative to the no-treatment control (cells with medium only). Viability data were fitted with GraphPad Prism software (version 5.03; GraphPad Software, La Jolla, CA), by nonlinear regression with 0 as bottom constraint. Presented data are based on triplicates.
Toxicity assessment on PTECs
Table S1. TC50 values for polymyxin analogues. Toxicity assessment on proximal tubular epithelial cells
performed using PrestoBlue™ assay. TC50 values are derived after non-linear regression analysis on cell viability
correspond to data obtained from 2 different batches of cells/analyses on different days. As the value for
polymyxin B differs 2-fold, values in the manuscript are presented relative to the polymyxin B value.
Compound TC50 (µ M) Compound TC50 (µ M)
Polymyxin B 80 Polymyxin B 41
Figure S3. Representative traces of ciPTECs’ viability after incubation with analogues for 24 hours. Shown data are based on […]

Structure (SMILES) | MIC E. coli (ATCC 25922) (E. coli (ATCC 25922)) | MIC A. baumannii (ATCC 19606) [1] | MIC K. pneumoniae (ATCC 13883) [2] | MIC P. aeruginosa (ATCC 27853) [3] | TC50, Day 1 [4] | ciPTEC Toxicity Index (relative to polymyxin B) [4] | TC50, Day 2 [4]
CCCCCCSSC[C@@H](NC(=O)CN)C(=O)N[C@H](C(=O)N[C@@H](CCN)C(=O)N[C@H]1CCNC(=O)[C@H]([C@@H](C)O)NC(=O)[C@H](CCN)NC(=O)[C@H](CCN)NC(=O)[C@H](CC(C)C)NC(=O)[C@@H](Cc2ccccc2)NC(=O)[C@H](CCN)NC1=O)[C@@H](C)O [Compound 21b] (H-G[dC](X4)T[Dab][Dab][Dab][dF]L[Dab][Dab]T; lactam 5-C) | 2 µg/mL (≈ 1.61 µM) | 1 µg/mL (≈ 0.807 µM) | 1 µg/mL (≈ 0.807 µM) | 2 µg/mL (≈ 1.61 µM) | 357 µM | 4.4 | 
CC(C)CCSSC[C@H](N)C(=O)N[C@H](C(=O)N[C@@H](CCN)C(=O)N[C@H]1CCNC(=O)[C@H]([C@@H](C)O)NC(=O)[C@H](CCN)NC(=O)[C@H](CCN)NC(=O)[C@H](CC(C)C)NC(=O)[C@@H](Cc2ccccc2)NC(=O)[C@H](CCN)NC1=O)[C@@H](C)O [Compound 18a] (H-C(S(3-Methylbutyl))T[Dab][Dab][Dab][dF]L[Dab][Dab]T; lactam 4-C) | 16 µg/mL (≈ 13.7 µM) | >32 µg/mL | 8 µg/mL (≈ 6.85 µM) | 2 µg/mL (≈ 1.71 µM) | 786 µM | 9.8 | 
CC(C)CCSSC[C@@H](NC(=O)CN)C(=O)N[C@H](C(=O)N[C@@H](CCN)C(=O)N[C@H]1CCNC(=O)[C@H]([C@@H](C)O)NC(=O)[C@H](CCN)NC(=O)[C@H](CCN)NC(=O)[C@H](CC(C)C)NC(=O)[C@@H](Cc2ccccc2)NC(=O)[C@H](CCN)NC1=O)[C@@H](C)O [Compound 22b] (H-G[dC](S(3-Methylbutyl))T[Dab][Dab][Dab][dF]L[Dab][Dab]T; lactam 5-C) | 2 µg/mL (≈ 1.63 µM) | 1 µg/mL (≈ 0.816 µM) | 0.5 µg/mL (≈ 0.408 µM) | 1 µg/mL (≈ 0.816 µM) | 163 µM |  | 
CC(C)C[C@@H]1NC(=O)[C@@H](Cc2ccccc2)NC(=O)[C@H](CCN)NC(=O)[C@@H](NC(=O)[C@H](CCN)NC(=O)[C@@H](NC(=O)[C@H](N)CSSCc2ccc(Oc3ccccc3)cc2)[C@@H](C)O)CCNC(=O)[C@H]([C@@H](C)O)NC(=O)[C@H](CCN)NC(=O)[C@H](CCN)NC1=O [Compound 37] (H-[dC](X3)T[Dab][Dab][Dab][dF]L[Dab][Dab]T; lactam 4-C) | 4 µg/mL (≈ 3.12 µM) | 1 µg/mL (≈ 0.781 µM) | 1 µg/mL (≈ 0.781 µM) | 4 µg/mL (≈ 3.12 µM) |  | 1.8 | 72 µM
CC(C)C[C@@H]1NC(=O)[C@@H](Cc2ccccc2)NC(=O)[C@H](CCN)NC(=O)[C@@H](NC(=O)[C@H](CCN)NC(=O)[C@@H](NC(=O)[C@H](N)CSSCc2ccc(-c3ccccc3)cc2)[C@@H](C)O)CCNC(=O)[C@H]([C@@H](C)O)NC(=O)[C@H](CCN)NC(=O)[C@H](CCN)NC1=O [Compound 36] (H-[dC](X5)T[Dab][Dab][Dab][dF]L[Dab][Dab]T; lactam 4-C) | 4 µg/mL (≈ 3.16 µM) | 1 µg/mL (≈ 0.791 µM) | 1 µg/mL (≈ 0.791 µM) | 2 µg/mL (≈ 1.58 µM) |  | 1.7 | 68 µM
CC(C)CCCCSSC[C@@H](N)C(=O)N[C@H](C(=O)N[C@@H](CCN)C(=O)N[C@H]1CCNC(=O)[C@H]([C@@H](C)O)NC(=O)[C@H](CCN)NC(=O)[C@H](CCN)NC(=O)[C@H](CC(C)C)NC(=O)[C@@H](Cc2ccccc2)NC(=O)[C@H](CCN)NC1=O)[C@@H](C)O [Compound 20b] (H-[dC](X1)T[Dab][Dab][Dab][dF]L[Dab][Dab]T; lactam 4-C) | 4 µg/mL (≈ 3.34 µM) | 2 µg/mL (≈ 1.67 µM) | 2 µg/mL (≈ 1.67 µM) | 16 µg/mL (≈ 13.4 µM) |  | 3.3 | 135 µM
CC(C)CCCCSSC[C@@H](NC(=O)CN)C(=O)N[C@H](C(=O)N[C@@H](CCN)C(=O)N[C@H]1CCNC(=O)[C@H]([C@@H](C)O)NC(=O)[C@H](CCN)NC(=O)[C@H](CCN)NC(=O)[C@H](CC(C)C)NC(=O)[C@@H](Cc2ccccc2)NC(=O)[C@H](CCN)NC1=O)[C@@H](C)O [Compound 24b] (H-G[dC](X1)T[Dab][Dab][Dab][dF]L[Dab][Dab]T; lactam 5-C) | 2 µg/mL (≈ 1.6 µM) | 1 µg/mL (≈ 0.798 µM) | 1 µg/mL (≈ 0.798 µM) | 2 µg/mL (≈ 1.6 µM) |  |  | 63 µM
CC(C)C[C@@H]1NC(=O)[C@@H](Cc2ccccc2)NC(=O)[C@H](CCN)NC(=O)[C@@H](NC(=O)[C@H](CCN)NC(=O)[C@@H](NC(=O)[C@H](N)CSSCc2cccc(Cl)c2)[C@@H](C)O)CCNC(=O)[C@H]([C@@H](C)O)NC(=O)[C@H](CCN)NC(=O)[C@H](CCN)NC1=O [Compound 38] (H-[dC](S(3-Cl-benzyl))T[Dab][Dab][Dab][dF]L[Dab][Dab]T; lactam 4-C) | 1 µg/mL (≈ 0.818 µM) | 1 µg/mL (≈ 0.818 µM) | 0.5 µg/mL (≈ 0.409 µM) | 4 µg/mL (≈ 3.27 µM) |  |  | 74 µM
